Experimental findings from ChEMBL document CHEMBL3407452, “Linear and branched alkyl-esters and amides of gallic acid and other (mono-, di- and tri-) hydroxy benzoyl derivatives as promising anti-HCV inhibitors” (Eur J Med Chem, 2015) are described below.

Each structure is given as a SMILES string. Calls of active or inactive are those of the source. No cut-off for these calls is given here.

One data set deals with Influenza A virus. The data set is described as follows: Antiviral activity against influenza A virus (H1N1). The data set is classed as functional, organism-based.
A short description of data set [1]: Cytotoxicity against human CEM cells assessed as inhibition of cell proliferation. The following applies: CEM cells (CCRF-CEM). The data set is classed as cell-based.
The next data set concerns Vaccinia virus. The data set is described as follows: Antiviral activity against vaccinia virus. The data set is classed as functional, organism-based. The following applies: Orthopoxvirus vaccinia.
In data set [2] the test system is Human immunodeficiency virus 2. Briefly: Antiviral activity against HIV2 ROD infected in human CEM cells assessed as reduction in virus-induced cytopathicity after 4 to 5 days by microscopy based syncytium cell formation assay. The settings on record: Human immunodeficiency virus 2, ISOLATE ROD, CCRF-CEM; read-out: EC50. It is filed as functional, organism-based, ISOLATE ROD, CCRF-CEM.

Data set [3] relates to Human immunodeficiency virus 1. Briefly: Antiviral activity against HIV1 3B infected in human CEM cells assessed as reduction in virus-induced cytopathicity after 4 to 5 days by microscopy based syncytium cell formation assay. The data set is classed as functional, organism-based, CCRF-CEM. The following applies: Human immunodeficiency virus 1, 3B, CCRF-CEM; read-out: EC50. On the technique in general: Damage to the host cells serves as the signal in cytopathic effect assays.

A further data set has as its system Chikungunya virus. Briefly: Antiviral activity against chikungunya virus. It is filed as functional.
Another data set relates to Reovirus sp. The data set is described as follows: Antiviral activity against reovirus. It is filed as functional, organism-based.
Another data set has as its system Influenza A virus H3N2. The data set is described as follows: Antiviral activity against influenza A virus H3N2. The data set is classed as functional, organism-based.
A further data set concerns Coxsackievirus B4. The data set is described as follows: Antiviral activity against human coxsackievirus B4. It is filed as functional, organism-based.
Data set [4] can be described thus: Cytotoxicity against human Huh5-2 cells after 72 hrs by MTS assay. It is filed as cell-based, Huh-5-2. Background: Tetrazolium dyes change colour on reduction, which living cells bring about.
The test system of another data set is Sindbis virus. The data set is described as follows: Antiviral activity against sindbis virus. It is filed as functional, organism-based.
The subject of data set [5] is Respiratory syncytial virus. Briefly: Antiviral activity against RSV. It is filed as functional, organism-based.
For another data set, the system named is Human respirovirus 3. The data set is described as follows: Antiviral activity against human parainfluenza virus 3. It is filed as functional, organism-based.
Another data set has as its system Hepatitis C virus. Briefly: Antiviral activity against HCV genotype 1b I389luc-ubi-neo/NS3-3'/5.1 replicons infected in human Huh5-2 HCV subgenomic replicon-containing cells assessed as reduction in virus replication after 3 days by luciferase reporter gene assay. It is filed as functional, Hepacivirus hominis. The settings on record: Hepatitis C virus, genotype 1b, Huh-5-2, 72 h; for EC50: read-out: EC50. In general terms: A replicon is a self-replicating genome or part of one, used to study replication in cells.

Another data set deals with Felid alphaherpesvirus 1. The data set is described as follows: Antiviral activity against feline herpesvirus. The data set is classed as functional, organism-based.
For data set [6], the system named is Vesicular stomatitis virus. Briefly: Antiviral activity against vesicular stomatitis virus. The data set is classed as functional, organism-based.
The test system of a further data set is Punta Toro virus. The data set is described as follows: Antiviral activity against punta toro virus. The data set is classed as functional, organism-based.
A further data set concerns Feline coronavirus. Briefly: Antiviral activity against feline coronavirus. It is filed as functional, organism-based.

As for `O=C(NCCCCCCCCNC(=O)c1ccc(O)c(O)c1O)c1ccc(O)c(O)c1O`, the result with Influenza A virus, in the data set on Vaccinia virus, in the data set on Chikungunya virus, with Reovirus sp., in the data set on Influenza A virus H3N2 and in the data set with Coxsackievirus B4 was inactive. The outcome (with Sindbis virus; in [5]; in the data set with Human respirovirus 3; in the data set with Felid alphaherpesvirus 1; in data set [6]; in the data set on Punta Toro virus) was inactive. In addition, the outcome with Feline coronavirus was inactive. Further, the CC50 – broadly, the concentration giving 50% cytotoxicity – in data set [1] came out at 82 µM. Further, the EC50 (usually the concentration at which the effect is half-maximal) was > 50 µM in data set [2], > 50 µM in data set [3] and 25 µM in the data set on Hepatitis C virus. In [4], this molecule came in with a CC50 at 72 h of 34 µM.
As for `O=C(NCCCCCCCCCCNC(=O)c1cc(O)c(O)c(O)c1)c1cc(O)c(O)c(O)c1`, the outcome in the data set with Influenza A virus, with Vaccinia virus, with Chikungunya virus, with Reovirus sp., in the data set with Influenza A virus H3N2 and in the data set on Coxsackievirus B4 was inactive. Further, the outcome (with Sindbis virus; in data set [5]; in the data set on Human respirovirus 3; in the data set with Felid alphaherpesvirus 1; in data set [6]; with Punta Toro virus) was inactive. For the same molecule, the result in the data set on Feline coronavirus was inactive. Besides, the CC50 in data set [1] is 86 µM. The EC50 in [2] is > 50 µM; in data set [3], > 50 µM; with Hepatitis C virus it was 20 µM. In data set [4], this molecule yielded a CC50 at 72 h of 47 µM.
With `O=C(NCCCCCCCCCCCCNC(=O)c1cc(O)c(O)c(O)c1)c1cc(O)c(O)c(O)c1`, the outcome in the data set with Influenza A virus, with Vaccinia virus, with Chikungunya virus, with Reovirus sp., in the data set with Influenza A virus H3N2 and with Coxsackievirus B4 was inactive. Also, the outcome (with Sindbis virus; in data set [5]; with Human respirovirus 3; with Felid alphaherpesvirus 1; in data set [6]; with Punta Toro virus) was inactive. For the same molecule, the outcome with Feline coronavirus was inactive. Further, the CC50 in data set [1] was found to be 58 µM. Further, the EC50 came out at 26 µM in data set [2], 19 µM in data set [3] and 27 µM in the data set with Hepatitis C virus. The CC50 at 72 h in data set [4] was > 100 µM. Also, the EC90 (usually the concentration at which the effect reaches the 90% level) in the data set on Hepatitis C virus is > 100 µM.
In the case of `O=C(NCCCOCCOCCOCCCNC(=O)c1ccc(O)c(O)c1O)c1ccc(O)c(O)c1O`, the result with Influenza A virus, with Vaccinia virus, in the data set on Chikungunya virus, in the data set on Reovirus sp., with Influenza A virus H3N2 and in the data set on Coxsackievirus B4 was inactive. For the same molecule, the outcome (with Sindbis virus; in data set [5]; in the data set on Human respirovirus 3; with Felid alphaherpesvirus 1; in data set [6]; in the data set with Punta Toro virus) was inactive. For the same molecule, the outcome in the data set on Feline coronavirus was inactive. For the same molecule, the CC50 in data set [1] amounted to 81 µM. Also, the values for the EC50 (in [2]; in data set [3]; in the data set on Hepatitis C virus) were > 50 µM, > 50 µM and 28 µM, respectively. This molecule returned a CC50 at 72 h in data set [4] of 49 µM.
